# Where two headings read alike, the source gives them in different places.
# Columns and labels:
# UGT1A1 [1] = target: T1, UGT1A1 (Rattus norvegicus, UniProt Q64550); experiment: UGT1A1 inhibition: bilirubin glucuronidation in rat liver microsomes (RLM), enzyme inhibition kinetics; conditions: for Mode of inhibition: Lineweaver-Burk and Dixon plots
# T1 sequence (Q64550 30-535): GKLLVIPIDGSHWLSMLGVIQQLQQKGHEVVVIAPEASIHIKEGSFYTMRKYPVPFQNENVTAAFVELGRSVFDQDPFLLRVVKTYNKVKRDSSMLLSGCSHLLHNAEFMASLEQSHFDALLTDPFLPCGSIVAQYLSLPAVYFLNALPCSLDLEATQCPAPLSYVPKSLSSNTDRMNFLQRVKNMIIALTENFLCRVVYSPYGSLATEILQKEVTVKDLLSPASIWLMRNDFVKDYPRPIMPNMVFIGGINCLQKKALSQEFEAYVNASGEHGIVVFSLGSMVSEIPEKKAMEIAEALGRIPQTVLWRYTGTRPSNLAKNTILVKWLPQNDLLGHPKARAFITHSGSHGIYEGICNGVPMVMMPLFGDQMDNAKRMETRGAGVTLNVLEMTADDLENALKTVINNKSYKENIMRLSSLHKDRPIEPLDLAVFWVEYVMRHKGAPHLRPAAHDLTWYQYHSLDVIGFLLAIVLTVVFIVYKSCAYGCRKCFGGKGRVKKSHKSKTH
# Experimental: UGT1A1 activity assays were conducted at 37 °C in a shaking water bath[41]. Incubation mixtures (final volume, 0.2 mL) contained 0.5 mg/mL RLM, 0.1 M Tris-HCl (pH 7.4), 5 mM MgCl2, 5 mM D-saccharic acid 1,4-lactone, 3.5 mM UDPGA, and 50 mg/g protein alamethicin. Bilirubin (as a UGT1A1 substrate) and the test samples were dissolved in 100% dimethylsulfoxide (DMSO) immediately before being added to the incubation mixtures. […] The reaction was initiated by adding UDPGA after a 5-min pre-incubation at 37 °C; it was terminated after 10 min by adding 0.6 mL of ice-cold methanol: acetonitrile (1:2) containing 200 mM ascorbic acid. Proteins were precipitated by centrifugation at 13,000 × g for 30 min at 4 °C prior, and the supernatants were analyzed by UPLC.The assays were done in triplicates respectively.
# Bilirubin glucuronidation was evaluated in the presence of various concentrations of bilirubin and potential inhibitors, as described above. Samples were analyzed in triplicate to determine their inhibition constants (Ki). For assays with inhibitors, the bilirubin concentration was 0.12 to 1.37 μM.
# The inhibition kinetic type and parameters were determined by fitting the reaction velocities of different concentrations of test components (inhibitors) and bilirubin (substrate). Lineweaver–Burk and Dixon fitting equations were employed to determine the inhibition type, and the second plot (drawn using the slope of lines in the Lineweaver–Burk plot versus inhibitor concentrations) was used to calculate the Ki values. The results were analyzed using GraphPad Prism 5 software (GraphPad Inc., San Diego, CA, USA)[48]. […] The goodness-of-fit of the inhibition models was estimated using the F statistic, R^2 value, parameter standard error estimates, and 95% confidence intervals.
# rUGT1A1 = rUGT1A1 system, competitive; cited from earlier work
# UGT1A1 [2] = target: T1, UGT1A1; conditions: RLM system, competitive; cited from earlier work
# UGT1A1 [3] = conditions: HLM system, competitive; cited from earlier work
# [4] = Ki value, bilirubin substrate, extract concentration based on emodin content
Structure (SMILES),Ki (UGT1A1 [1]; [4]) [µM],Mode of inhibition (UGT1A1 [1]),"Ki at 10 min (UGT1A1 [1]; rat, pH 7.4, probe bilirubin (0.12-1.37 μM), Ki value, bilirubin substrate, extract concentration based on emodin content) [µM]",Ki (rUGT1A1) [µM],Ki (UGT1A1 [2]) [µM],Ki (UGT1A1 [3]) [µM]
COc1cc(O)c2c(c1)C(=O)c1cc(C)cc(O)c1C2=O [Physcion],94.7,Non-Competitive inhibition,–,–,–,–
Cc1cc(O)c2c(c1)C(C1c3cc(C)cc(O)c3C(=O)c3c(O)cc(O)cc31)c1cc(O)cc(O)c1C2=O (stereo not drawn) [Trans-emodin dianthrones],1.08,Competitive inhibition,–,–,–,–
O=C1c2cc(O)cc(O)c2C(=O)c2c(O)cc(CO)cc21 [Citreorosein],18.6,Mixed Type inhibition,–,–,–,–
O=C(O)c1cc(O)c2c(c1)C(=O)c1cccc(O)c1C2=O [Rhein],127,Mixed Type inhibition,–,–,–,–
Cc1cc(O)c2c(c1)C(C1c3cc(C)cc(O)c3C(=O)c3c(O)cc(O)cc31)c1cc(O)cc(O)c1C2=O (stereo not drawn) [Cis-emodin dianthrones],0.863,–,–,–,–,–
Cc1cc(O)c2c(c1)C(=O)c1cc(O)cc(O)c1C2=O [Emodin],10,Competitive inhibition,–,4.85 ± 0.528,10 ± 0.611,5.4 ± 0.956

# The next lines start with results.
Ki (UGT1A1 [1]; [4]) [µM],Mode of inhibition (UGT1A1 [1]),"Ki at 10 min (UGT1A1 [1]; rat, pH 7.4, probe bilirubin (0.12-1.37 μM), Ki value, bilirubin substrate, extract concentration based on emodin content) [µM]",Structure (SMILES),Ki (rUGT1A1) [µM],Ki (UGT1A1 [2]) [µM],Ki (UGT1A1 [3]) [µM]
12.9,Non-Competitive inhibition,–,Cc1cc(O)c2c(c1)C(C1c3cc(C)cc(O)c3C(=O)c3c(OC4OC(CO)C(O)C(O)C4O)cc(O)cc31)c1cc(O)cc(O)c1C2=O (stereo not drawn) [Polygonumnolide C3],–,–,–
4.29,Non-Competitive inhibition,4.22,Cc1cc(O)c2c(c1)C(C1c3cc(C)cc(O)c3C(=O)c3c(OC4OC(CO)C(O)C(O)C4O)cc(O)cc31)c1cc(O)cc(O)c1C2=O (stereo not drawn) [Polygonumnolide C2],–,–,–
77.4,Un-Competitive inhibition,–,Cc1cc(O)c2c(c1)C(C1c3cc(C)cc(O)c3C(=O)c3c(OC4OC(CO)C(O)C(O)C4O)cc(O)cc31)c1cc(O)cc(O)c1C2=O (stereo not drawn) [Polygonumnolide C4],–,–,–
